For 23 molecules, GI50 and TGI results are on record in PubChem BioAssay (NCI).

Structures are written as SMILES. “And” between values parts separate entries of the source, which are not always exact repeats. Equal values may be shown once.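 Values below derive from 48-hour exposures of cells grown in 96-well plates, with endpoints linearly interpolated between the two concentrations bracketing the appropriate inhibition level. GI50 = concentration required for 50% inhibition of growth. TGI: concentration producing complete growth inhibition.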

Test in all cases: NCI-60 cell line screen, 48 h
Test [1] deals with NCI-H23 lung.
Test [2] relates to SNB-19 CNS.
The test system of test [3] is M14 melanoma.
Test [4] concerns NCI-H226 lung.
For test [5], the system named is HS 578T breast.
Test [6] concerns SF-295 CNS.
Test [7] has as its system SNB-75 CNS.
Test [8] relates to KM12 colon.
Test [9] deals with IGROV1 ovarian.
Test [10] has as its system MALME-3M melanoma.

On to `c1ccc(CNC2CC(NCc3ccccn3)CC(NCc3ccccn3)C2)nc1` (configuration not stated), for which the GI50 is 2.7 µM and 6.69 µM and 1.99 µM in test [1]; 3.42 µM and 1.64 µM and 1.96 µM in test [2]; 3.15 µM and 1.39 µM and 2.35 µM in test [3]; 2.77 µM in test [4]; 5.03 µM in test [6]; 2.05 µM in test [8]. Further, the TGI is 7.38 µM and 23.4 µM and 3.89 µM in test [1]; 11.7 µM and 5.64 µM and 3.83 µM in [2]; 10.3 µM and 8.32 µM and 5.31 µM in test [3]; 6.07 µM and 7.07 µM and 5.39 µM in test [4]; 53.3 µM and 25 µM and 85.5 µM in test [5]; 18.9 µM and 20.9 µM and 36.5 µM in [6]. Moreover, the TGI in test [7] was 9.59 µM and 16 µM; in [8], 3.8 µM and 6 µM and 4.07 µM; in test [9], 10.1 µM and 11.1 µM and 22.5 µM; in [10], 10.4 µM and 8.6 µM and 15.8 µM.
Regarding `CN(C)c1nc2sc3c(c2c(=O)o1)CCCC3`, the TGI in test [1] is above 100 µM; in test [2], above 100 µM; in [3] it was above 100 µM; in test [4] it was 81 µM; in test [5], above 100 µM; in [6] it was above 100 µM. For the same molecule, the TGI was 95.2 µM in [7], above 100 µM in test [8], above 100 µM in test [9] and above 100 µM in test [10].
In the case of `Cc1ccc(C)n1-c1ccccc1C1SCCCS1`, the TGI in [1], in test [2], in test [3], in [4], in test [5] and in test [6] was above 100 µM in each case. Moreover, the TGI in test [7], in [8], in test [9] and in [10] was above 100 µM throughout.
Consider `C/C=C/[C@@]1(OC(=O)c2ccccc2)C[C@@H]2CCCC[C@@H]21`, for which the TGI in test [1] was 31 µM; in test [2], 31.6 µM; in [3], 32.3 µM; in test [4], 30.9 µM; in test [5], 27.2 µM; in test [6] it was 33.3 µM. The TGI came out at 27.3 µM in [7], 32.9 µM in [8], 32.1 µM in test [9] and 35.3 µM in test [10].
Consider `CCCC(=O)O`, for which the TGI in test [1], in test [2], in test [3], in test [4], in test [5] and in test [6] was above 18700 µM each time. Further, the TGI in test [7], in test [8], in test [9] and in test [10] was above 18700 µM throughout. Moreover, the GI50 in test [5] is 4950 µM; in test [10], 3490 µM.
In the case of `C=CCC1(O)c2ccccc2C(=O)c2c(O)ccc(O)c21` (configuration not stated), the TGI in [1] was 56 µM; in test [2], 68.6 µM; in [3], 27.5 µM; in test [4] it was above 43 µM; in [5], 21.9 µM; in test [6], above 51.9 µM. The TGI in test [7] was 25.3 µM; in [8] it was 30.1 µM; in [9], above 100 µM; in test [10], 28.8 µM.
Take `C1CC2=C(C1)[Se]C(=C1Sc3nsnc3S1)[Se]2`: the TGI in [1], in test [2], in [3], in test [4], in test [5] and in [6] was above 100 µM each time. For the same molecule, the TGI in [7], in test [8], in [9] and in test [10] was above 100 µM throughout.
With `O=C1C2CCCCC2C(=O)N1n1c(Cc2ccc(Cl)cc2)n[nH]c1=O` (configuration not stated), the TGI in test [1], in test [2], in test [3], in [4], in [5] and in test [6] was above 100 µM each time. Also, the TGI in test [7], in [8], in test [9] and in test [10] was above 100 µM in each case.
As for `O=C1c2c(F)c(F)c(F)c(F)c2SC2=NCCN12`, the TGI in test [1] was determined as 10.4 µM; in [2] it was 29 µM; in test [3] it was 14.1 µM; in test [4] it was 34.5 µM; in [5], 46.4 µM; in test [6], 32.4 µM. Moreover, the TGI in test [7] stood at 29.9 µM; in test [8] it was 25.6 µM; in [9], 17.7 µM; in [10] it was 12.8 µM.
Turning to `O=C1Oc2ccccc2C(=O)/C1=C/N1C(=O)N/C(=C\c2ccccc2O)C1=O`, the TGI in test [1], in test [2], in test [3], in [4], in test [5] and in [6] was above 100 µM in each case. Also, the TGI in test [7], in test [8], in test [9] and in test [10] was above 100 µM in each case.
As to `O=C1c2ccccc2C2CNC1(O)c1ccccc12` (configuration not stated), the TGI in [1], in test [2], in test [3], in test [4], in test [5] and in test [6] was above 100 µM throughout. Moreover, the TGI in test [7], in [8], in test [9] and in [10] was above 100 µM throughout.
As to `CC(C)(C)OC(=O)CN1CCNCCNCC1`, the TGI in [1], in test [2], in [3], in test [4], in [5] and in test [6] was above 100 µM each time. Also, the TGI in test [7], in test [8], in test [9] and in test [10] was above 100 µM each time.
Regarding `O=c1[nH]c(=O)n(C2CC(O)C(CO)O2)cc1I` (configuration not stated), the TGI in test [1], in test [2], in test [3], in test [4], in test [5] and in [6] was above 100 µM throughout. Also, the TGI in test [7], in test [8], in test [9] and in [10] was above 100 µM in each case.
For the molecule `C=C(C)[C@@H]1CC[C@]2(C(=O)O)CC[C@]3(C)[C@H](CC[C@@H]4[C@@]5(C)CC(=O)C(C)(C)[C@@H]5CC[C@]43C)[C@@H]12`, the TGI in [1], in [2], in [3], in test [4], in test [5] and in test [6] was above 25 µM throughout. Further, the TGI in test [7], in test [8], in [9] and in [10] was above 25 µM throughout.
Take `CC(=O)NC1C(OCc2ccccc2)OC(CO)C(O)C1OCC(=O)NC(C)C(=O)NC(CCC(=O)NCCCCNc1ccc([N+](=O)[O-])c2[nH]c3ccccc3c(=O)c12)C(N)=O` (configuration not stated): the TGI was above 100 µM in [1]; above 100 µM in test [2]; above 100 µM in test [3]; above 100 µM in [4]; 75.2 µM in test [5]; above 100 µM in test [6]. For the same molecule, the TGI in [7], in test [8], in [9] and in [10] was above 100 µM throughout.
For `O=C(O)c1ccccc1.[Ag]`, the TGI in test [1] was 54.5 µM; in test [2] it was above 100 µM; in test [3], 36 µM; in test [4] it was above 100 µM; in test [5], above 71.9 µM; in test [6], above 100 µM. The TGI in test [7] was found to be 11.3 µM; in test [8], 47.3 µM; in [9] it was 30.6 µM; in test [10], 3.25 µM.
Regarding `O=C(O)[C@H]1[C@@H](C2CCCCC2)O[C@@H](C2CCCCC2)O[C@H]1C(F)(F)F`, the TGI in test [1] was found to be 42.6 µM; in [2] it was 81.3 µM; in test [3] it was 39.4 µM; in [4], 41.6 µM; in test [5] it was 58.8 µM; in [6], 39.5 µM. The TGI came out at 38.2 µM in test [7], 46.4 µM in test [8], 35.9 µM in test [9] and 73.3 µM in test [10].
As for `CCOC(=O)c1cccc(NC(=O)CCl)c1`, the TGI is 13.1 µM in test [1]; above 92.8 µM in test [2]; 24.9 µM in test [3]; 26 µM in [4]; 11 µM in test [5]; 26.1 µM in test [6]. Further, the TGI turned out to be 9.22 µM in [7], 21.4 µM in [8], 8.11 µM in [9] and 18.5 µM in test [10].
Turning to `O=C1NC(N/N=C\C(O)C(O)C(O)CO)=N/C1=C/c1ccccc1` (configuration not stated), the TGI in test [1] is above 100 µM; in test [2] it was above 100 µM; in test [3], > 100 µM and 76.9 µM; in [4] it was above 100 µM; in test [5] it was above 100 µM; in test [6], above 100 µM. Besides, the TGI in [7], in test [8], in test [9] and in test [10] was above 100 µM each time. The GI50 was > 100 µM and 30.4 µM in test [3]; > 100 µM and 38.2 µM in test [6]; > 100 µM and 28.1 µM in test [8]; > 100 µM and 43.3 µM in test [9].
For `COC(=O)[C@H](Cc1ccccc1)NC(=O)c1ccc(CNC(=O)/C=C/c2ccc(-c3ccccc3)cc2)cc1`, the TGI in test [1] was above 100 µM; in [2], 39.1 µM; in [3], above 100 µM; in test [4], above 100 µM; in [5], 54.5 µM; in [6], 94.5 µM. Also, the TGI in test [7] is 48.3 µM; in [8] it was above 100 µM; in [9], above 100 µM; in test [10], above 100 µM.
For the molecule `CCC(C)[C@H](NC(=O)[C@H](Cc1ccccc1)NC(=O)N(CC)c1ccccc1)C(=O)N[C@@H](CC(C)C)C(=O)OC` (some centres not stated), the TGI in test [1] is above 100 µM; in test [2] it was above 100 µM; in test [3], above 100 µM; in [4] it was 46.2 µM; in [5] it was above 100 µM; in test [6], above 100 µM. Besides, the TGI in [7] is above 100 µM; in [8], 61.3 µM; in test [9], 61.5 µM; in test [10], above 100 µM.
For the molecule `O=S(=O)(c1ccc(Br)cc1)n1c2ccc(Br)cc2c2nc3ccccc3nc21`, the TGI in test [1], in [2], in test [3], in test [4], in [5] and in [6] was above 100 µM in each case. Also, the TGI is 82.6 µM in test [7], above 100 µM in test [8], above 100 µM in [9] and above 100 µM in test [10].
As for `CCCCNC1CCC2(SCCS2)c2[nH]c3ccccc3c21` (configuration not stated), the TGI in test [1] was above 100 µM; in test [2], above 100 µM; in [3], above 65.1 µM; in test [4] it was above 73.7 µM; in [5], above 82.1 µM; in test [6] it was above 100 µM. Moreover, the TGI in [7] was above 100 µM; in test [8] it was 36.9 µM; in test [9], above 100 µM; in test [10], 33.8 µM.
